{"source": "patent US20260000608A1", "about": "“COMPOSITIONS AND METHODS FOR ADMINISTERING ANESTHETICS” (Children's Medical Center Corporation, priority 2018, published 2026)", "key": {"[1]": {"system": "rat tail", "experiment": "Rat tail IVRA (Bier block) assessed by tail-flick test", "format": "in vivo", "description": "In a typical IVRA procedures, the rats were anesthetized with isoflurane-oxygen. The tail vein was cannulated with a 24-gauge IV catheter, which was placed in the distal third of the tail and filled with heparinized saline (BD, USA). The tail was exsanguinated by wrapping it with a rubber strip. An elastic tourniquet was tightly applied proximal to the rubber strip and then the rubber strip was removed. Next, 0.4 mL of formulation was injected by a microinjector (1 mL) through the IV catheter. After releasing the tourniquet, animals were allowed to recover from the isoflurane anesthesia, then rat tail IVRA was assessed by the tail-flick test. In brief, tail-flick latency (the time from onset of radiant heat to tail-flick response) was measured by a tail-flick analgesia meter (Tail-Flick Unit 37370; Ugo Basile, Comerio, Italy). The intensity of radiant heat (parameter of the analgesia meter) was set at 90%, and cut-off time of radiant heat was set at 18 seconds. The testing area was between the injection site in the distal tail and the tourniquet, in the proximal tail. Baseline tail-flick latency was measured in untreated and saline injected rats. All evaluations were performed by two trained observers blinded to group allocation."}, "[2]": {"system": "HUVECs", "experiment": "Cytotoxicity in HUVECs (MTS cell viability)", "format": "cell-based, human", "details": "0.1 mg/mL free bupivacaine, 24 hours", "description": "HUVECs were purchased from ATCC. The cell line was authenticated by the suppliers and passaged in the laboratory for fewer than 3 months after resuscitation. HUVECs were maintained in a 37° C./5% CO2 humidified chamber in Endothelial Cell Growth Medium (EBM-2) (Lonza, USA). When the cells grew to 80% confluence, the cell studies were performed. For cytotoxicity studies, HUVECs were seeded in 96-well plates and incubated with various drug formulations (free bupivacaine, micellar composition comprising bupivacaine, and liposomal composition comprising bupivacaine) for 24 hours. Cell viability was evaluated by CellTiter 96® AQueous One Solution Cell Proliferation Assay (MTS) (Promega, USA) according to suppliers' instructions. The absorbance at 490 nm wavelength was detected with a microplate reader ([…]x, BioTek®, USA). Untreated cells served as a control. Results were shown as the average cell viability [(OD treat OD blank)/(OD control OD blank)×100%] of quintuplicate wells. […] The cells were washed three times with 3 mL of fresh medium and the washing medium was added to the collected incubated medium, the final volume of the collected medium was adjusted to 12 mL and the fluorescence intensity of each medium was measured by fluorescence spectrophotometer (Cary Eclipse, Agilent, USA). […]"}, "[3]": {"system": "rat tails and organs (heart, liver, spleen, lung, kidney)", "experiment": "Histology (H&E) of tails and organs 24 hours after IVRA", "format": "in vivo", "details": "0.5% bupivacaine", "description": "24 hours after the IVRA procedures, rats that had been administered saline, free bupivacaine (0.5% bupivacaine), micellar composition comprising bupivacaine (0.1% bupivacaine), and liposomal composition comprising bupivacaine (0.1% bupivacaine) were euthanized. Tails and organs (e.g., heart, liver, spleen, lung, and kidney) were harvested and fixed with 10% formalin. The organs were processed by standard procedures to produce hematoxylin and eosin-stained (H&E stained) slides. The tails were decalcified to remove bones before H&B staining procedures. Similar regions were examined in each organ from different groups. Tissues from healthy rats (no treatment) were used as negative controls."}, "[4]": {"experiment": "Bupivacaine concentration in the blood after IVRA and tourniquet release", "format": "in vivo, rat", "description": "The following were administered as IVRA: saline, 0.5% free bupivacaine, 0.1% free bupivacaine, micellar composition comprising bupivacaine (0.1% bupivacaine), and liposomal composition comprising bupivacaine (0.1% bupivacaine). After releasing the tourniquet, 200 microliters of blood was collected (through the tail vein opposite from that through formulations were injected) at 15 minutes, 30 minutes, 45 minutes, 90 minutes, 150 minutes, 240 minutes, 480 minutes and 720 minutes. Blood was put in ethylenediaminetetraacetic acid (EDTA) containing blood collection tubes (BD, USA). The samples were stored in ice water for 10-15 minutes and then centrifuged at 3,000 rpm at 4° C. for 5 minutes to obtain plasma. The hemocytes were lysed by ultrasonication (Sonics & Materials, Inc., USA) at 4° C. for 2 minutes and centrifuged at 13,000 rpm at 4° C. for 5 minutes to obtain a supernatant. The supernatant was combined with plasma. Next, 50 microliters of the blood samples were mixed with 10 microliters of sodium hydroxide aqueous solution (1 M) and 0.3 mL ethyl ether in an ice-water bath. The mixtures were vigorously vortexed for 2 minutes and centrifuged at 3,000 rpm for […] at room temperature. The organic phase was transferred to a 4 mL glass vial and evaporated to dryness in a 4° C. ice-water bath under vacuum. The residue was dissolved in 200 microliters of water-methanol (50/50, v/v), and was mechanically agitated for 30 seconds. The samples were transferred to clean polypropylene tubes and centrifuged at 13,000 rpm for 10 minutes. The supernatant was analyzed by HPLC."}, "[5]": {"system": "rat tail blood vessels", "experiment": "Distribution within the tail: frozen sections, anti-CD34 staining, CLSM", "format": "in vivo", "description": "The slices were imaged by CLSM. The intensity of the Rhd fluorescence was calculated from images using ImageJ."}, "[6]": {"system": "rat tail", "experiment": "In vivo imaging (IVIS) of Rhd fluorescence retention in rat tail after tourniquet release", "details": "one hour after tourniquet release, n=4", "method": "For in vivo imaging, the same IVRA procedures were performed, and 0.4 mL of: (i) free Rhd; Rhd-labeled micellar composition comprising bupivacaine; and Rhd-labeled liposomal composition comprising bupivacaine was injected into the tails of rats (n=4) after fastening the tourniquet. Images were taken with an In Vivo Imaging System (PerkinElmer Inc., USA) before releasing the tourniquet, and the signal intensity in those images was considered to be 100%. […] The Rhd signals of each composition were quantified at each time point, and normalized to the intensity before tourniquet release."}, "[7]": {"details": "0.4 mL of 0.5% bupivacaine by IVRA, tourniquet time 5 min"}, "[8]": {"details": "0.4 mL of 0.5% bupivacaine by IVRA, tourniquet time 10 min"}, "[9]": {"details": "0.4 mL of 0.5% bupivacaine by IVRA, tourniquet time 15 min"}, "[10]": {"details": "0.4 mL of 0.5% bupivacaine by IVRA, tourniquet time 20 min"}, "[11]": {"details": "0.4 mL of 0.5% bupivacaine by IVRA, tourniquet time 30 min"}, "[12]": {"details": "bupivacaine concentration 0.1% w/v, 0.4 mL, 15 minute tourniquet"}, "[13]": {"details": "bupivacaine concentration 0.5% w/v, 0.4 mL, 15 minute tourniquet"}}, "note": "Where “and” joins values, the source holds several entries; their conditions need not be identical. Identical values can stand only once."}
{"compound": "CCCCN1CCCCC1C(=O)Nc1c(C)cccc1C", "note": "(centres unmarked) [Free bupivacaine, bupivacaine]", "values": [{"measurement": "anesthetic effect (tail-flick)", "setting": "[1]; 0.1% bupivacaine, comparable to saline", "value": "did not achieve any anesthetic effect"}, {"measurement": "Anesthesia Duration", "setting": "[1]; [7]", "value": 0, "unit": "h"}, {"measurement": "Successful Anesthesia (%)", "setting": "[1]; [7]", "value": 0, "unit": "%"}, {"measurement": "Anesthesia Duration", "setting": "[1]; [8]", "value": "0.3 ± 0.5", "unit": "h"}, {"measurement": "Successful Anesthesia (%)", "setting": "[1]; [8]", "value": 25, "unit": "%"}, {"measurement": "Anesthesia Duration", "setting": "[1]; [9]", "value": "2 h and 2.0 ± 0.6 h"}, {"measurement": "Successful Anesthesia (%)", "setting": "[1]; [9]", "value": 100, "unit": "%"}, {"measurement": "animals with anesthesia", "setting": "[1]; 0.4 mL of 0.5% bupivacaine by IVRA, tourniquet time 15 minutes", "value": "four of four"}, {"measurement": "Anesthesia Duration", "setting": "[1]; [10]", "value": "1.9 ± 0.5", "unit": "h"}, {"measurement": "Successful Anesthesia (%)", "setting": "[1]; [10]", "value": 100, "unit": "%"}, {"measurement": "Anesthesia Duration", "setting": "[1]; [11]", "value": "2.0 ± 0.5", "unit": "h"}, {"measurement": "Successful Anesthesia (%)", "setting": "[1]; [11]", "value": 100, "unit": "%"}, {"measurement": "Anesthesia Duration", "setting": "[1]; [12]", "value": 0, "unit": "h"}, {"measurement": "Successful Anesthesia (%)", "setting": "[1]; [12]", "value": 0, "unit": "%"}, {"measurement": "Anesthesia Duration", "setting": "[1]; [13]", "value": "2.0 ± 0.6", "unit": "h"}, {"measurement": "Successful Anesthesia (%)", "setting": "[1]; [13]", "value": 100, "unit": "%"}, {"measurement": "Anesthesia Duration", "setting": "[1]; bupivacaine concentration 0.5% w/v, 0.4 mL, 15 minute tourniquet, listed as free bupivacaine", "value": "2.0 ± 0.6", "unit": "h"}, {"measurement": "cells alive", "setting": "[2]", "value": "22.1+/−2.4%"}, {"measurement": "histology of heart, liver, spleen, lung and kidney (H&E)", "setting": "[3]", "value": "no histological abnormalities"}, {"measurement": "tail myotoxicity (H&E)", "setting": "[3]", "value": "no myotoxicity"}, {"measurement": "mortality", "setting": "[4]; 0.5% free bupivacaine by IVRA, rats", "value": "none died"}, {"measurement": "clinical observation after tourniquet release", "setting": "[4]; rat, in vivo", "value": "dyspnea"}, {"measurement": "time of peak bupivacaine concentration in blood", "setting": "[4]; rat, in vivo", "value": 45, "unit": "min"}]}
{"compound": "rhodamine [free Rhd]", "values": [{"measurement": "Rhd signal in tail sections (fluorescence microscopy)", "setting": "[5]; 15 minutes after release of the tourniquet", "value": "very strong Rhd signals co-localized with blood vessel"}, {"measurement": "Rhd signal in tail sections (fluorescence microscopy)", "setting": "[5]; four hours after release of the tourniquet", "value": "much weaker than at 15 minutes"}, {"measurement": "fluorescence intensity in the rat tail, % of intensity before tourniquet release", "setting": "[6]", "value": "~50", "unit": "%"}]}
